Test results: patent US20040229931A1, “1-Aryl-3-(indol-5-yl) prop-2-en-1-ones, compositions containing them and use” (Aventis Pharma S. A., priority 2003, published 2004)
pIC50: −log10 of the molar value.

Columns and labels:
Ames test (mutagenicity) = test: Ames test (mutagenicity)
Excerpt: (§1) Another problem posed consisted in obtaining products having all the advantages described above without the disadvantages frequently encountered during the study of products of the chalcone family. These disadvantages are (i) the problems of cardiac toxicity, which can be evaluated by measuring the inhibition of Herg receptors, (ii) finally, and to a lesser degree, the problems of mutagenicity, which can be evaluated in particular in the Ames test.

Tubulin = target: T1, Tubulin (Sus scrofa, UniProt P02550+P02554); test: Inhibition of polymerization of tubulin (turbidimetry); assay type: biochemical; settings: pig brain tubulin 10 μM, turbidity at 350 nm, 37° C.
T1 construct: Tubulin is purified from pig brains according to published methods; from tissue; host or cells: pig brain
T1 sequence (P02550 whole entry): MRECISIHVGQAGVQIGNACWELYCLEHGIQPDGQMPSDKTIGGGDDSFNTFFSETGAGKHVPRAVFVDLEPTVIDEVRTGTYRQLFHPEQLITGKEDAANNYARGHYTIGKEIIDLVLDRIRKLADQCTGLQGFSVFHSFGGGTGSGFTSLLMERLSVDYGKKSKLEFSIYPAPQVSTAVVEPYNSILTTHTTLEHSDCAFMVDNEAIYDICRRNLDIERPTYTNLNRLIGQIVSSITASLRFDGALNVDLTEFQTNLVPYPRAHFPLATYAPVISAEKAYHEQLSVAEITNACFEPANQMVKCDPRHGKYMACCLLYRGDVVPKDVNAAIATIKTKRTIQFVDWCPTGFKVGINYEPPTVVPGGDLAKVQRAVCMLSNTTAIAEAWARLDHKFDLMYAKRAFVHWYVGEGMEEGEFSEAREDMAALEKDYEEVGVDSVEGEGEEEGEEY
T1 sequence (P02554 whole entry): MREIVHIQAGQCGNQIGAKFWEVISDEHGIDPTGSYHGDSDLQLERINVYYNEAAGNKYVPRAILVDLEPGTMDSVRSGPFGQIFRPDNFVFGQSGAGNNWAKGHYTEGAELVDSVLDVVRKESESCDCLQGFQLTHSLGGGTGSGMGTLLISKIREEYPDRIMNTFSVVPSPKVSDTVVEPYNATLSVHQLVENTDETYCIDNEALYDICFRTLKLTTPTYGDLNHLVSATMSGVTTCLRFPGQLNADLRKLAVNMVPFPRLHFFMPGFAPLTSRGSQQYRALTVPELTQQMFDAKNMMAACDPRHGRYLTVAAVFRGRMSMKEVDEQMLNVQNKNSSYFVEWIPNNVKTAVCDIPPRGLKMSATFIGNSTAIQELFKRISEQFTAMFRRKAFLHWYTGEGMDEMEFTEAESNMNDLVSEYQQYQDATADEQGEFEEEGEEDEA
Experimental: Tubulin is purified from pig brains according to published methods (Shelanski et al., Proc. Natl. Acad. Sci. USA, 70, 765-768. Weingarten et al., 1975, Proc. Natl. Acad. Sci. USA, 72, 1858-1862). Briefly, the brains are ground and centrifuged in an extraction buffer. The tubulin contained in the supernatant of the extract undergoes two successive cycles of polymerization at 37° C. and depolymerization at 4° C., before being separated from the MAPs (Microtubule Associated Proteins) by chromatography on a phosphocellulose P11 column (Whatman). The tubulin thus isolated is more than 95% pure. It is stored in a buffer called RB/2 30% glycerol whose composition is 50 mM MES-NaOH [2-(N-morpholino)ethanesulfonic acid], pH 6.8; 0.25 mM MgCl2; 0.5 mM EGTA; 30% glycerol (v/v), 0.2 mM GTP (guanosine-5′-triphosphate).
The polymerization of tubulin to microtubules is monitored by turbidimetry as follows: the tubulin is adjusted to a concentration of 10 μM (1 mg/ml) in RB/2 30% glycerol buffer to which 1 mM GTP and 6 mM MgCl2 are added. The polymerization is triggered by an increase in temperature from 6° C. to 37° C. in a cuvette having an optical path length of 1 cm, placed in a UVIKON 931 spectrophotometer (Kontron) equipped with a thermostated cuvette holder. The increase in the turbidity of the solution is monitored at 350 nm.
The compounds of this invention are dissolved at 10 mM in DMSO and added at variable concentrations (0.5 to 10 μM) to the tubulin solution before polymerization. The IC50 is defined as the concentration of compound which inhibits the rate of polymerization by 50%.

HDMEC cells = test: Inhibition of proliferation of endothelial cells HDMEC ([14C]thymidine incorporation); assay type: cell-based; settings: Homo sapiens, Endothelial cell, 48 hours
Experimental: The evaluation of the detachment of the endothelial cells in vitro is determined in the following manner. HDMEC cells (Human Dermal Microvascular Endothelial Cells, Promocell, c-122102) are cultured in an ECGM-MV medium which contains 5% foetal calf serum, growth factors (EGF 10 ng/ml, hydrocortisone 1 μg/ml, 0.4% growth supplement with heparin) and antibiotics (amphoteracin 50 ng/ml, gentamycin 50 μg/ml). For the detachment test, the HDMECs are inoculated at 5 000 cells in clear-bottomed 96-well plates (Costar) precoated with fibronectin (10 μg/ml) or vitronectin (1 μg/ml) or gelatin. Twenty-four hours later, the culture medium is replaced with ECGM-MV 0.1% BSA medium containing the products indicated. […] The fluorescence of the cells which remain attached to the substratum of the well is counted using a fluorimeter, Spectrafluor Plus (Tecan excitation 485 nm, and emission 535 nm). The data are the mean of six different samples and are expressed as the percentage of the control (untreated cells).
The proliferation of HeLa or HDMEC cells is evaluated by measuring the incorporation of [^14C]thymidine in the following manner. […] [^14C]Thymidine (0.1 μCi/well) and the products to be evaluated are then added. […] 48 hours after incubation at 37° C., the radioactivity incorporated into the cells is measured by counting the plate in a TR1-LUX counter (Wallac). […]

HeLa cells = test: Inhibition of proliferation of HeLa tumor cells ([14C]thymidine incorporation); assay type: cell-based; settings: Homo sapiens, 48 hours, read-out: Inhibition of cell proliferation IC50, HeLa
Experimental: The proliferation of HeLa or HDMEC cells is evaluated by measuring the incorporation of [^14C]thymidine in the following manner. The HeLa cells (epithelial tumor cells of human origin) are cultured in a DMEM medium (Gibco) which contains 10% of foetal calf serum and antibiotics (1% penicillin, 1% streptomycin). To carry out the proliferation test, the cells are inoculated into 96-well Cytostar microplates (Amersham), at the rate of 5000 cells per well. [^14C]Thymidine (0.1 μCi/well) and the products to be evaluated are then added. Variable concentrations of products of up to 10 μM are used; the DMSO (solvent used to solubilize the products) should not exceed 0.5% in the medium. 48 hours after incubation at 37° C., the radioactivity incorporated into the cells is measured by counting the plate in a TR1-LUX counter (Wallac). The IC50 is defined as the concentration of compound which reduces by 50% the radioactivity compared with an untreated control.

Herg receptors = Herg receptors (Homo sapiens, UniProt Q12809); test: Inhibition of Herg receptors (cardiac toxicity)
Chain of Herg receptors (Q12809 whole entry): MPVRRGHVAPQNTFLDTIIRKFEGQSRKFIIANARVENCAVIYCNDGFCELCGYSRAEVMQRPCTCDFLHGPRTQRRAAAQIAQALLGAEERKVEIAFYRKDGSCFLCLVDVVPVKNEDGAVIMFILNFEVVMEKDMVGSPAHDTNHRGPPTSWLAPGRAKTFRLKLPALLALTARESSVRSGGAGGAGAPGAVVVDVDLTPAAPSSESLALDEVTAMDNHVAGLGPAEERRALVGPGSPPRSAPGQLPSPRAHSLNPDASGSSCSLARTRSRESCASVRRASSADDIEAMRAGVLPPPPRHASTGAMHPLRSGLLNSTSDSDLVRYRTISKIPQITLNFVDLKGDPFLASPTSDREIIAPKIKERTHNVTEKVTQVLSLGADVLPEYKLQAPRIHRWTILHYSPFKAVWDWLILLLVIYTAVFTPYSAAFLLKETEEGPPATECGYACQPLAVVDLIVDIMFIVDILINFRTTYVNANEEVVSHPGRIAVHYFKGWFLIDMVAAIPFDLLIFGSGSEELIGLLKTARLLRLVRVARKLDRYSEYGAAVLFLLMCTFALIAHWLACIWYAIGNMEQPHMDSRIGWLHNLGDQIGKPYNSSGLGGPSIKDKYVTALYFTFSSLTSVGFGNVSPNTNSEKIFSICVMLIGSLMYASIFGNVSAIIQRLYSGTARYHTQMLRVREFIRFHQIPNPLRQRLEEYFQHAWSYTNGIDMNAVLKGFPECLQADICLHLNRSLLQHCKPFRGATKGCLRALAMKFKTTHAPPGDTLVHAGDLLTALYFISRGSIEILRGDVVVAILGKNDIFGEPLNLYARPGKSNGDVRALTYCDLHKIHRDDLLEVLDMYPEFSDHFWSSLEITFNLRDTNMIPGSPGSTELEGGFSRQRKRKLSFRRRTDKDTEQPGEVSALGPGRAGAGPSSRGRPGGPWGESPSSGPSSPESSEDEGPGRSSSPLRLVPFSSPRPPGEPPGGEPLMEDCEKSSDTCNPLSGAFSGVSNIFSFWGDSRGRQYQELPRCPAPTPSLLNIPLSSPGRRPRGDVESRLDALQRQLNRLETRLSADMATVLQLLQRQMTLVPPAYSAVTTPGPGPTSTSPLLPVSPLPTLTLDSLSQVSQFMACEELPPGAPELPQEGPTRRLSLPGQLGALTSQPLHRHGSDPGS
Excerpt: as §1

[1] = test system: C51 murine adenocarcinoma (colon tumor); test: Evaluation of tumor necrosis in vivo; settings: 35 mg/kg, intravenous injection, 24 hours after treatment, female BALB/c mice; listed as EXAMPLE 2
Excerpt: Mice are bred either by IFFA-CREDO (Domaine des Oncins, 69210 L'Arbresle, France) from a breed obtained by Jackson Laboratories, Bar Harbor, Me., USA, or alternatively by Charles River France (76410 St Aubin les Elbeuf, France) from a breed obtained by Charles River, USA. The mice initially weigh more than 18 g at the start of the trial. They have free access to food (UAR reference 113, Villemoisson, 91160 Epinay sur Orge, France) and to water.
The tumors used are currently transplanted in our laboratories. All these tumors are at the Frederick Cancer Research Facility (Frederick, Md., USA) at the repository of frozen tumors of the National Cancer Institute (NCI), or at the American Type Culture Collection (ATCC, Rockville, Md., USA).
The techniques for tumor transplantation, chemotherapy and data analysis have been presented in detail (Corbett et al., 1982a; Corbett et al., 1982b).
To summarize, the animals necessary for one experiment are assembled and bilaterally implanted on day 0 (zero).
The growth of solid tumors develops freely up to the desired size. […]
The samples are then treated, cut into sections, stained with haematoxylin, eosin and saffron yellow, and are then examined […]. The tumor necrosis (necrosis±degeneration) is evaluated microscopically using a scale of extent from 0 to 5: […]
The necrosis due to the experiment was evaluated on an untreated control. […]

Row | pIC50 (Tubulin) | pIC50 (HeLa cells) | melting point [°C] | Compound | Ames (Ames test (mutagenicity)) | pIC50 (HDMEC cells) | pIC50 (Herg receptors) | C51 colon Tumor necrosis In vivo (grade, scale 0 to 5) [1]
1 | 6.10 | 8.43 to 8.46 | 119 | COc1cc(C(=O)/C(C)=C/c2ccc3c(ccn3CCO)c2)cc(OC)c1OC [Example 1, E-2-Methyl-3-[1-(2-hydroxyethyl)indol-5-yl]-1-(3,4,5-trimethoxyphenyl)propenone] | negative | 8.48 to 9.01 |  | 
2 | 6.22 | 8.79 to 8.91 | 83 | COc1cc(C(=O)/C(C)=C/c2ccc3c(ccn3CCO)c2)cc2c1OCO2 [Example 2, E-2-Methyl-3-[1-(2-hydroxyethyl)indol-5-yl]-1-(3-methoxy-4,5-methylenedioxyphenyl)propenone] | negative | 9.21 to 9.66 | < 4.52 | 5 (considerable, >75%)
3 | 6.08 |  | 112 | COc1ccc(OC)c(C(=O)/C(C)=C/c2ccc3c(ccn3CCO)c2)c1 [Example 3, E-2-Methyl-3-[1-(2-hydroxyethyl)-1-H-indol-5-yl]-1-(2,5-dimethoxyphenyl)propenone] | negative |  |  | 
